Results published in patent publication US20100298141A1, “SUBSTITUTED PYRIDINE N-OXIDE HERBICIDES” (E. I. DU PONT DE NEMOURS AND COMPANY, priority 2007, published 2010).

Columns and labels:
windgrass [1] = assay: Test D preemergence test; assay type: in vivo, Apera spica-venti; conditions: scale 0 to 100
Text: Seeds of plant species selected from annual bluegrass (Poa annua), blackgrass (Alopecurus myosuroides), downy bromegrass (Bromus tectorum), field violet (Viola arvensis), green foxtail (Setaria viridis), Italian ryegrass (Lolium multiflorum), littleseed canarygrass (Phalaris minor), spring wheat (Triticum aestivum), wild oat (Avena fatua), […]), winter barley (Hordeum vulgare), and winter wheat (Triticum aestivum) were planted and treated preemergence with test chemicals formulated in a non-phytotoxic solvent mixture which included a surfactant. […] A dash (-) response means no test result.

duck salad = assay: Test B flooded paddy test; assay type: in vivo, Heteranthera limosa; conditions: Flood, 250 g ai/ha, 13 to 15 days; scale 0 to 100, 0 no effect, 100 complete control
Text: At time of treatment, test pots were flooded to 3 cm above the soil surface, treated by application of test compounds directly to the paddy water, and then maintained at that water depth for the duration of the test. Treated plants and controls were maintained in a greenhouse for 13 to 15 days, after which time all species were compared to controls and visually evaluated. […] A dash (-) response means no test result.

winter barley = assay: Test C postemergence test; assay type: in vivo, Hordeum vulgare; conditions: for Plant response rating (0 to 100), Barley: 31 g ai/ha; for Plant response rating, Barley: scale 0 to 100, 0 no effect, 100 complete control
Outline: (§1)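 Postemergence sprays of formulated test chemicals on plants 2 to 18 cm tall (1- to 4-leaf stage). Greenhouse hold for 13 to 15 days, then visual rating of each species against untreated controls; dash means no test result.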

common chickweed = assay: Test F preemergence test; assay type: in vivo, Stellaria media; conditions: scale 0 to 100; for Chickweed plant response rating: 62 g ai/ha
Outline: (§2)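 Preemergence application to planted seeds, or postemergence to sugarcane plants; compound in non-phytotoxic solvent mix plus surfactant. Greenhouse, 14-21 days. Visual rating vs. controls.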

Russian thistle = assay: Test F preemergence test; assay type: in vivo, Salsola kali; conditions: scale 0 to 100
Text: Seeds of plant species selected from bermudagrass (Cynodon dactylon), Surinam grass (Brachiaria decumbens), large crabgrass (Digitaria sanguinalis), green foxtail (Setaria viridis), goosegrass (Eleusine indica), johnsongrass (Sorghum halepense), kochia (Kochia scoparia), pitted morningglory (Ipomoea lacunosa), purple nutsedge (Cyperus rotundus), common ragweed (Ambrosia elation), mustard (Brassica nigra), guineagrass (Panicum maximum), […] (Paspalum dilatatum), barnyardgrass (Echinochloa crus-galli), southern sandbur (Cenchrus echinatus), common sowthistle (Sonchus oleraceous), prickly […] spinosa), Italian ryegrass (Lolium multiflorum), common purslane (Portulaca oleracea), broadleaf signalgrass (Brachiaria platyphylla), common groundsel (Senecio vulgaris), common chickweed (Stellaria media), Virginia dayflower (Commelina virginica), annual bluegrass (Poa annua), naked crabgrass (Digitaria nuda), […] cochinchinensis), quackgrass (Elytrigia repens), Canada horseweed (Conyza canadensis), field bindweed (Convolvulus arvensis), […] (Bidens bipinnata), common mallow (Malva sylvestris), Russian thistle (Salsola kali), and sugarcane (Saccharum officinarum) were planted and treated preemergence with test chemicals formulated in a non-phytotoxic solvent mixture which included a surfactant. At a different time, sugarcane was treated with postemergence applications of some of the test chemicals formulated in the same manner. Plants were approximately 3- to 4-leaf stage for the postemergence treatments. Treated plants and controls were maintained in a greenhouse for 14 to 21 days, after which time all species were compared to controls and visually evaluated. […] A dash (-) response means no test result.

canarygrass = assay: Test C postemergence test; assay type: in vivo, Phalaris minor; conditions: for Plant response rating (0 to 100), Canarygrass: 31 g ai/ha; for Plant response rating, Canarygrass: scale 0 to 100, 0 no effect, 100 complete control
Outline: as §1

soybean = assay: Test G preemergence test; assay type: in vivo, Glycine max; conditions: scale 0 to 100
common sowthistle = assay: Test F preemergence test; assay type: in vivo, Sonchus oleraceous; conditions: scale 0 to 100; for Sowthistle plant response rating: 62 g ai/ha
Outline: as §2

windgrass [2] = assay: Test C pre-/postemergence test; assay type: in vivo, Apera spica-venti; conditions: Postemergence; for Plant response rating, Windgrass: scale 0 to 100, 0 no effect, 100 complete control
chickweed = assay: Test C postemergence test; assay type: in vivo, Stellaria media; conditions: for Plant response rating (0 to 100), Chickweed: 31 g ai/ha; for Plant response rating, Chickweed: scale 0 to 100, 0 no effect, 100 complete control
Outline: as §1

| SMILES | Plant response rating, Windgrass (windgrass [1]; 31 g ai/ha) | Plant response rating, Windgrass (windgrass [1]; 62 g ai/ha) | Plant response rating, Windgrass (windgrass [1]; 125 g ai/ha) | Plant response rating, Windgrass (windgrass [1]; 250 g ai/ha) | Plant response rating, Ducksalad (duck salad) | Plant response rating (0 to 100), Barley (winter barley) | Plant response rating, Barley (winter barley; 62 g ai/ha) | Plant response rating, Barley (winter barley; 125 g ai/ha) | Plant response rating, Barley (winter barley; 250 g ai/ha) | Plant response rating, Chickweed (common chickweed; 8 g ai/ha, preemergence) | Chickweed plant response rating (common chickweed; Preemergence) | Plant response rating, Chickweed (common chickweed; Preemergence, 16 g ai/ha) | Plant response rating, Chickweed (common chickweed; Preemergence, 31 g ai/ha) | Plant response rating, Russian Thistle (Russian thistle; 8 g ai/ha, preemergence) | Plant response rating, Russian Thistle (Russian thistle; Preemergence, 16 g ai/ha) | Plant response rating, Russian Thistle (Russian thistle; Preemergence, 31 g ai/ha) | Plant response rating (0 to 100), Canarygrass (canarygrass) | Plant response rating, Canarygrass (canarygrass; 62 g ai/ha) | Plant response rating, Canarygrass (canarygrass; 125 g ai/ha) | Plant response rating, Canarygrass (canarygrass; 250 g ai/ha) | also measured |
| --- | --- | --- | --- | --- | --- | --- | --- | --- | --- | --- | --- | --- | --- | --- | --- | --- | --- | --- | --- | --- | --- |
| Cc1cc[n+]([O-])c(S(=O)(=O)Cc2c(C(F)(F)F)nn(C)c2OC(F)F)c1 [Compound 2] | 100 | 100 | 100 | 100 | 100 | 0 | 0 | 0 | 0 | 10 | 100 | 80 | 95 | 0 | 0 | 0 | 0 | 0 | 0 | 0 | Plant response rating, Soybean (soybean; 31 g ai/ha): 0; Plant response rating, Soybean (soybean; 62 g ai/ha): 0; Plant response rating, Soybean (soybean; 125 g ai/ha): 0; Plant response rating, Soybean (soybean; 250 g ai/ha): 0; Plant response rating, Sowthistle (common sowthistle; 8 g ai/ha, preemergence): 0; Plant response rating, Sowthistle (common sowthistle; 16 g ai/ha, preemergence): 0; Sowthistle plant response rating (common sowthistle; Preemergence): 100; Plant response rating, Sowthistle (common sowthistle; Preemergence, 31 g ai/ha): 60; Plant response rating (0 to 100), Windgrass (windgrass [2]; 31 g ai/ha): 0; Plant response rating (0 to 100), Windgrass (windgrass [2]; 62 g ai/ha): 10; Plant response rating, Windgrass (windgrass [2]; 125 g ai/ha): 50; Plant response rating, Windgrass (windgrass [2]; 250 g ai/ha): 70; Plant response rating (0 to 100), Chickweed (chickweed): 0; Plant response rating, Chickweed (chickweed; 62 g ai/ha): 0; Plant response rating, Chickweed (chickweed; 125 g ai/ha): 5; Plant response rating, Chickweed (chickweed; 250 g ai/ha): 80 |
| Cc1cc[n+]([O-])c([S+]([O-])Cc2c(C(F)(F)F)nn(C)c2OC(F)F)c1 (stereo not shown) [Compound 1] | 10 | 70 | 100 | 100 | 90 | 0 | 0 | 0 | 0 | 40 | 100 | 60 | 98 | 0 | 0 | 0 | 0 | 0 | 0 | 0 | Plant response rating, Soybean (soybean; 31 g ai/ha): 0; Plant response rating, Soybean (soybean; 62 g ai/ha): 20; Plant response rating, Soybean (soybean; 125 g ai/ha): 20; Plant response rating, Soybean (soybean; 250 g ai/ha): 25; Plant response rating, Sowthistle (common sowthistle; 8 g ai/ha, preemergence): 0; Plant response rating, Sowthistle (common sowthistle; 16 g ai/ha, preemergence): 0; Sowthistle plant response rating (common sowthistle; Preemergence): 70; Plant response rating, Sowthistle (common sowthistle; Preemergence, 31 g ai/ha): 30; Plant response rating (0 to 100), Windgrass (windgrass [2]; 31 g ai/ha): 0; Plant response rating (0 to 100), Windgrass (windgrass [2]; 62 g ai/ha): 10; Plant response rating, Windgrass (windgrass [2]; 125 g ai/ha): 60; Plant response rating, Windgrass (windgrass [2]; 250 g ai/ha): 85; Plant response rating (0 to 100), Chickweed (chickweed): 50; Plant response rating, Chickweed (chickweed; 62 g ai/ha): 65; Plant response rating, Chickweed (chickweed; 125 g ai/ha): 90; Plant response rating, Chickweed (chickweed; 250 g ai/ha): 90 |
| Cn1nc(C(F)(F)F)c(C[S+]([O-])c2cccc[n+]2[O-])c1OC(F)F (stereo not shown) [Compound 3] | 0 | 75 | 100 | 100 | 90 | 0 | 0 | 0 | 0 | 25 | 100 | 98 | 100 | 0 | 0 | 35 | 0 | 0 | 0 | 0 | Russian Thistle plant response rating (Russian thistle; 62 g ai/ha, Preemergence): 100; Plant response rating, Soybean (soybean; 31 g ai/ha): 0; Plant response rating, Soybean (soybean; 62 g ai/ha): 15; Plant response rating, Soybean (soybean; 125 g ai/ha): 20; Plant response rating, Soybean (soybean; 250 g ai/ha): 35; Plant response rating, Sowthistle (common sowthistle; 8 g ai/ha, preemergence): 0; Plant response rating, Sowthistle (common sowthistle; 16 g ai/ha, preemergence): 0; Sowthistle plant response rating (common sowthistle; Preemergence): 100; Plant response rating, Sowthistle (common sowthistle; Preemergence, 31 g ai/ha): 65; Plant response rating (0 to 100), Windgrass (windgrass [2]; 31 g ai/ha): 0; Plant response rating (0 to 100), Windgrass (windgrass [2]; 62 g ai/ha): 0; Plant response rating, Windgrass (windgrass [2]; 125 g ai/ha): 20; Plant response rating, Windgrass (windgrass [2]; 250 g ai/ha): 70; Plant response rating (0 to 100), Chickweed (chickweed): 10; Plant response rating, Chickweed (chickweed; 62 g ai/ha): 70; Plant response rating, Chickweed (chickweed; 125 g ai/ha): 85; Plant response rating, Chickweed (chickweed; 250 g ai/ha): 95 |
